The record followed here is article PMC4466525, “Design, Synthesis and Structure-Activity Relationship Studies of Novel Survivin Inhibitors with Potent Anti-Proliferative Properties” (PLoS ONE, 2015).

The structures appear in SMILES notation. Where two headings read alike, the source gives them in different places. Bounds are passed on as bounds.

One assay has as its system M14/LCC6MDR1. The experiment in a line: Cell viability (MTS) anti-proliferative assay, multidrug-resistant M14/LCC6MDR1. In kind it is cell-based, human. As to conditions: for IC50: multidrug-resistant M14/LCC6MDR1 melanoma, 48 h treatment, MTS, n = 4, read-out: IC50 values ± SEM, M14/LCC6MDR1; for Resistance Index: IC50 on M14/LCC6MDR1 divided by IC50 on parental M14. The procedure: (§1) The anti-proliferative effect of UC-112 and its analogs were tested in human melanoma (A375, M14 and M14/LCC6MDR1) and human prostate cancer (PC-3) cell lines. All the cell lines were purchased from ATCC (American Type Culture Collection, Manassas, VA). The cancer cells were cultured using the supplemented cell culture medium as described before at 37°C in a humidified atmosphere containing 5% CO2. 5000 cells in logarithm growing phase were seeded overnight into each well of a 96-well plate. Then the cells were continuously incubated with sequential diluted compound solution (10 nM to 100 μM, 100 μl per well) in cell culture medium.

A further assay has as its system A375. In words: Cell viability (MTS) anti-proliferative assay, A375. Type of assay: cell-based. The following applies: A-375, A375 human melanoma, 48 h treatment, n = 4, read-out: IC50 values ± SEM, A375. The procedure:
as §1

In a further assay the test system is M14. In words: Cell viability (MTS) anti-proliferative assay, M14. Type of assay: cell-based. The following applies: M14 human melanoma, 48 h treatment, n = 4, read-out: IC50 values ± SEM, M14. The procedure: as §1
A further assay concerns PC-3. The experiment in a line: Cell viability (MTS) anti-proliferative assay, PC-3. In kind it is cell-based. The following applies: PC-3 human prostate cancer, 48 h treatment, n = 4, read-out: IC50 values ± SEM, PC-3. As for the experimental part:
as §1

Take `Oc1c(CN2CCCC2)cc(COCc2ccc(F)cc2)c2cccnc12` [4a, 5-(((4-fluorobenzyl)oxy)methyl)-7-(pyrrolidin-1-ylmethyl)quinolin-8-ol]: the IC50 in the assay with M14/LCC6MDR1 (Homo sapiens, 48 h) was 4.4 ± 0.7 µM; in the assay on A375, 1.5 ± 0.2 µM; with M14, 1.8 ± 0.3 µM; with PC-3, 0.7 ± 0.2 µM. The “Resistance Index” value with M14/LCC6MDR1 was 2.4.
With `Oc1c(CN2CCCC2)cc(COCc2ccco2)c2cccnc12` [6a, 5-((furan-2-ylmethoxy)methyl)-7-(pyrrolidin-1-ylmethyl)quinolin-8-ol], the IC50 with M14/LCC6MDR1 (Homo sapiens, 48 h) stood at 15.3 ± 3.1 µM; in the assay with A375, 2.7 ± 0.3 µM; in the assay with M14 it was 3.1 ± 0.3 µM; in the assay on PC-3, 27.5 ± 2 µM. Moreover, the “Resistance Index” value in the assay on M14/LCC6MDR1 was 4.9.
Regarding `CC(C)(C)c1ccc(COCc2cc(CN3CCCC3)c(O)c3ncccc23)cc1` [4h, 5-(((4-(tert-butyl)benzyl)oxy)methyl)-7-(pyrrolidin-1-ylmethyl)quinolin-8-ol], the IC50 was 1.5 ± 0.7 µM in the assay with M14/LCC6MDR1 (Homo sapiens, 48 h); 1.1 ± 0.4 µM in the assay on A375; 1.5 ± 0.3 µM in the assay with PC-3.
`CCCCOCc1cc(CN2CCCC2)c(O)c2ncccc12` [6g, 5-(butoxymethyl)-7-(pyrrolidin-1-ylmethyl)quinolin-8-ol]: the IC50 in the assay on A375 came out at 3 ± 0.5 µM; in the assay on M14, 4.9 ± 1.3 µM.
Take `COc1ccc(COCc2cc(CN3CCCC3)c(O)c3ncccc23)cc1` [4i, 5-(((4-methoxybenzyl)oxy)methyl)-7-(pyrrolidin-1-ylmethyl)quinolin-8-ol]: the IC50 amounted to 3.8 ± 0.6 µM in the assay with M14/LCC6MDR1 (Homo sapiens, 48 h); 1.8 ± 0.2 µM in the assay with A375; 1.5 ± 0.4 µM in the assay with M14; 1 ± 0.4 µM in the assay on PC-3. Moreover, the “Resistance Index” value with M14/LCC6MDR1 amounted to 2.5.
Consider `Oc1c(CN2CCOCC2)cc(COCc2ccccc2)c2cccnc12` [8b, 5-((benzyloxy)methyl)-7-(morpholinomethyl)quinolin-8-ol], for which the IC50 in the assay with M14/LCC6MDR1 (Homo sapiens, 48 h) was found to be 3.5 ± 1 µM; in the assay on A375, 5 ± 1.6 µM; in the assay with M14 it was 4.8 ± 0.5 µM. The “Resistance Index” value with M14/LCC6MDR1 worked out at 0.7.
`Oc1c(CN2CCCCC2)cc(COCc2ccccc2)c2cccnc12` [8a, 5-((benzyloxy)methyl)-7-(piperidin-1-ylmethyl)quinolin-8-ol]: the IC50 in the assay on M14/LCC6MDR1 (Homo sapiens, 48 h) is 2.1 ± 0.6 µM; in the assay on A375 it was 1.1 ± 0.1 µM; in the assay on M14, 1.3 ± 0.2 µM; with PC-3, 1.3 ± 0.3 µM. Moreover, the “Resistance Index” value in the assay with M14/LCC6MDR1 amounted to 1.6.
On to `Oc1c(CN2CCCC2)cc(COCc2ccc(Cl)cc2)c2cccnc12` [4b, 5-(((4-chlorobenzyl)oxy)methyl)-7-(pyrrolidin-1-ylmethyl)quinolin-8-ol], for which the IC50 worked out at 2.4 ± 0.5 µM with M14/LCC6MDR1 (Homo sapiens, 48 h); 1.5 ± 0.3 µM in the assay on A375; 1.1 ± 0.1 µM in the assay with M14; 0.9 ± 0.1 µM with PC-3. The “Resistance Index” value in the assay on M14/LCC6MDR1 came to 2.2.
In the case of `Oc1c(CN2CCCC2)cc(COCc2ccc(OCc3ccccc3)cc2)c2cccnc12` [4j, 5-(((4-(benzyloxy)benzyl)oxy)methyl)-7-(pyrrolidin-1-ylmethyl)quinolin-8-ol], the IC50 in the assay on M14/LCC6MDR1 (Homo sapiens, 48 h) came to 12.1 ± 0.5 µM; in the assay with A375, 2.8 ± 0.1 µM.
In the same order, the values of `CC(=O)Nc1ccc(COCc2cc(CN3CCCC3)c(O)c3ncccc23)cc1` [4k, N-(4-(((8-hydroxy-7-(pyrrolidin-1-ylmethyl)quinolin-5-yl)methoxy)methyl)phenyl)acetamide] are 5.5 ± 1.3 µM and 4.7 ± 0.8 µM.
As for `COCCn1c2c([n+](Cc3cnccn3)c1C)C(=O)c1ccccc1C2=O` [YM-155, reference compound], the IC50 is above 10 µM with M14/LCC6MDR1 (Homo sapiens, 48 h) and 0.003 µM in the assay with M14. Also, the “Resistance Index” value in the assay on M14/LCC6MDR1 is recorded as “higher than 2941”.
Consider `Cc1ccc(COCc2cc(CN3CCCC3)c(O)c3ncccc23)cc1` [4e, 5-(((4-methylbenzyl)oxy)methyl)-7-(pyrrolidin-1-ylmethyl)quinolin-8-ol], for which the IC50 was determined as 4.1 ± 2 µM in the assay with M14/LCC6MDR1 (Homo sapiens, 48 h); 1.7 ± 0.3 µM in the assay on A375; 2.3 ± 0.5 µM in the assay on M14; 1.1 ± 0.2 µM in the assay with PC-3. For the same molecule, the “Resistance Index” value with M14/LCC6MDR1 is 1.8.
For `CCCOCc1cc(CN2CCCC2)c(O)c2ncccc12` [6f, 5-(propoxymethyl)-7-(pyrrolidin-1-ylmethyl)quinolin-8-ol], the figures for the IC50 with A375 and with M14 were 5 ± 0.3 µM and 5.9 ± 1.2 µM, respectively.
For `CN(Cc1ccccc1)Cc1cc(CN2CCCC2)c(O)c2ncccc12` [12b, 5-((benzyl(methyl)amino)methyl)-7-(pyrrolidin-1-ylmethyl)quinolin-8-ol], the IC50 in the assay with M14/LCC6MDR1 (Homo sapiens, 48 h) was 8 ± 1 µM; in the assay with A375 it was 7.1 ± 0.7 µM; in the assay on M14, 6.2 ± 1.4 µM; with PC-3 it was 2.5 ± 0.6 µM. The “Resistance Index” value with M14/LCC6MDR1 is recorded as 1.3.
In the case of `CCOCc1cc(CN2CCCC2)c(O)c2ncccc12` [6e, 5-(ethoxymethyl)-7-(pyrrolidin-1-ylmethyl)quinolin-8-ol], the IC50 was determined as 6.1 ± 0.7 µM with A375 and 5.1 ± 2.1 µM in the assay on M14.
For the molecule `Oc1c(CN2CCCC2)cc(COCCCc2ccccc2)c2cccnc12` [10b, 5-((3-phenylpropoxy)methyl)-7-(pyrrolidin-1-ylmethyl)quinolin-8-ol], the IC50 in the assay with M14/LCC6MDR1 (Homo sapiens, 48 h) was 15 to 20 µM; with M14/LCC6MDR1, 20 ± 1.6 µM; in the assay on A375, 2.4 ± 0.7 µM; in the assay with M14, 2.3 ± 0.8 µM. Moreover, in the assay with M14/LCC6MDR1, the “Resistance Index” value came out at 8.7.
For `COc1cc(COCc2cc(CN3CCCC3)c(O)c3ncccc23)cc(OC)c1OC` [4l, 7-(pyrrolidin-1-ylmethyl)-5-(((3,4,5-trimethoxybenzyl)oxy)methyl)quinolin-8-ol], the IC50 in the assay on M14/LCC6MDR1 (Homo sapiens, 48 h) was above 30 µM; in the assay on A375 it was 2.8 ± 0.4 µM; in the assay with M14, 3.6 ± 1 µM; in the assay on PC-3, 1.6 ± 0.3 µM. The “Resistance Index” value with M14/LCC6MDR1 is above 8.3.
With `Oc1c(CN2CCCC2)cc(COCC2CCCCC2)c2cccnc12` [6d, 5-((cyclohexylmethoxy)methyl)-7-(pyrrolidin-1-ylmethyl)quinolin-8-ol], the figures for the IC50 in the assay on A375 and with M14 were 1 ± 0.1 µM and 1.3 ± 0.6 µM, respectively.
For the molecule `Oc1c(CN2CCCC2)cc(COCc2cccs2)c2cccnc12` [6b, 7-(pyrrolidin-1-ylmethyl)-5-((thiophen-2-ylmethoxy)methyl)quinolin-8-ol], the IC50 in the assay on M14/LCC6MDR1 (Homo sapiens, 48 h) is 4.2 ± 0.2 µM; in the assay with A375, 2.5 ± 0.5 µM; in the assay on M14 it was 1.9 ± 0.9 µM; with PC-3, 3.4 ± 0.7 µM. Also, the “Resistance Index” value in the assay on M14/LCC6MDR1 is listed as 2.2.
In the same order, the values of `Oc1c(CN2CCCC2)cc(COCc2ccccn2)c2cccnc12` [6c, 5-((pyridin-2-ylmethoxy)methyl)-7-(pyrrolidin-1-ylmethyl)quinolin-8-ol] are above 30 µM, 8.4 ± 1.5 µM, 8 ± 2.2 µM, above 30 µM and above 3.8.
In the case of `Oc1c(CN2CCCC2)cc(COCCc2ccccc2)c2cccnc12` [10a, 5-(phenethoxymethyl)-7-(pyrrolidin-1-ylmethyl)quinolin-8-ol], the IC50 in the assay with M14/LCC6MDR1 (Homo sapiens, 48 h) was 15 to 20 µM; in the assay with M14/LCC6MDR1, 15 ± 2.5 µM; in the assay on A375, 2.8 ± 0.9 µM; in the assay on M14, 2.9 ± 0.2 µM. Moreover, the “Resistance Index” value with M14/LCC6MDR1 is given as 5.2.
Turning to `Oc1c(CN2CCCC2)cc(COCc2ccc(C(F)(F)F)cc2)c2cccnc12` [4d, 7-(pyrrolidin-1-ylmethyl)-5-(((4-(trifluoromethyl)benzyl)oxy)methyl)quinolin-8-ol], the IC50 with M14/LCC6MDR1 (Homo sapiens, 48 h) is 1.9 ± 0.5 µM; with A375, 0.9 ± 0.3 µM; with M14, 1 ± 0.4 µM; in the assay with PC-3 it was 1 ± 0.1 µM. In the assay on M14/LCC6MDR1, the “Resistance Index” value was 1.9.
